Assay results from patent US7875644B2, “1-acyldihydropyrazole derivatives” (Merck Patent GmbH, priority 2005, dated 2011).

The compounds below were run against T1, Met kinase (Homo sapiens, UniProt P08581) (assay: Met kinase inhibition, flashplate method). Settings: 33P-ATP, substrate pAGLT, 3 hrs at room temperature.
T1 construct: 6His (N); purchased Upstate 14-526; host or cells: Sf21 insect cells (S. frugiperda), baculovirus
Format: biochemical
Source text: According to the manufacturer's data (Met, active, upstate, catalogue No. 14-526), Met kinase is expressed for the purposes of protein production in insect cells (Sf21; S. frugiperda) and subsequent affinity-chromatographic purification as “N-terminal 6His-tagged” recombinant human protein in a baculovirus expression vector.
The test plates used are 96-well Flashplate^R microtitre plates from Perkin Elmer (Cat. No. SM P200). The components of the kinase reaction described below are pipetted into the assay plate. The Met kinase and the substrate poly Ala-Glu-Lys-Tyr, (pAGLT, 6:2:5:1), are incubated for 3 hrs at room temperature with radioactively labelled ^33P-ATP in the presence and absence of test substances in a total volume of 100 μl. The reaction is terminated using 150 μl of a 60 mM EDTA solution. After incubation for a further 30 min at room temperature, the supernatants are filtered off with suction, and the wells are washed three times with 200 μl of 0.9% NaCl solution each time. The measurement of the bound radioactivity is carried out by means of a scintillation measuring instrument (Topcount NXT, Perkin-Elmer).
The full value used is the inhibitor-free kinase reaction. This should be approximately in the range 6000-9000 cpm. The pharmacological zero value used is staurosporin in a final concentration of 0.1 mM. The inhibitory values (IC50) are determined using the RS1_MTS program.
Kinase reaction conditions per well: • 30 μl of assay buffer • 10 μl of substance to be tested in assay buffer with 10% of DMSO • 10 μl of ATP (final concentration 1 μM cold, 0.35 μCi of ^33P-ATP) • 50 μl of Met kinase/substrate mixture in assay buffer; • (10 ng of enzyme/well, 50 ng of pAGLT/well) • Solutions used: • Assay buffer: • 50 mM HEPES • 3 mM magnesium chloride • 3 μM sodium orthovanadate • 3 mM manganese(II) chloride • 1 mM dithiothreitol (DTT) • pH=7.5 (to be set using sodium hydroxide) • Stop solution: • 60 mM Titriplex III (EDTA) • ^33P-ATP: Perkin-Elmer; • Met kinase: Upstate, Cat. No. 14-526, Stock 1 μg/10 μl; spec. activity 954 U/mg; • Poly-Ala-Glu-Lys-Tyr, 6:2:5:1:Sigma Cat. No. P1152

T1 sequence (P08581 974-1390 limits assumed): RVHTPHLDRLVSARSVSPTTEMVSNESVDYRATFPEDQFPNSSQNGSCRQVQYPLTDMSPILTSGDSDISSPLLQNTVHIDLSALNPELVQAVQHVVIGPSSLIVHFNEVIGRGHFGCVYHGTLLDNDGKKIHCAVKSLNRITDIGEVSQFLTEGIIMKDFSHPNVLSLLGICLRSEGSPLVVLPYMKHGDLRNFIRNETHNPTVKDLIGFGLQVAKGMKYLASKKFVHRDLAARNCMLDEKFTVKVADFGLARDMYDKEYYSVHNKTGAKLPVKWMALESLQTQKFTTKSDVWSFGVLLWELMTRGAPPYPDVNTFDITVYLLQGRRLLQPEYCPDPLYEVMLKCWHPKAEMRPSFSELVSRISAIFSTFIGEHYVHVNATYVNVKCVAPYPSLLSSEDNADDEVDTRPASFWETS

| IC50 [nM] | Structure (SMILES) |
| --- | --- |
| 9 | CC(C(=O)N1CCC(c2ccc3c(c2)CNC(=O)N3)=N1)c1ccc(O)cc1 (stereo not drawn) [Compound A100, 3-(2-Oxo-3,4-dihydro-1H-quinazolin-6-yl)-1-[2-(4-hydroxyphenyl)propionyl]-4,5-dihydro-1H-pyrazole] |
| 2.5 | O=C(Nc1cccc(CC(=O)N2CCC(c3cc(Cl)ccc3Cl)=N2)c1)OCCCN1CCOCC1 [Compound A154, 3-morpholin-4-ylpropyl (3-{2-[3-(2,5-dichlorophenyl)-4,5-dihydro-1H-pyrazol-1-yl]-2-oxoethyl}phenyl)carbamate] |
| 330 | O=C(Cc1cccc(O)c1)N1CCC(c2ccc(F)cc2)=N1 [Compound A31, 1-(3-Hydroxybenzylcarbonyl)-3-(4-fluorophenyl)-4,5-dihydro-1H-pyrazole] |
| 3 | O=C(Cc1ccc2[nH]cnc2c1)N1CCC(c2cc(Cl)ccc2O)=N1 [Compound A108, 1-[2-(1H-Benzimidazol-5-yl)acetyl]-3-(3-chloro-6-hydroxyphenyl)-4,5-dihydro-1H-pyrazole] |
| 3.6 | CC(C(=O)N1CCC(c2cc(Cl)ccc2O)=N1)c1ccc(O)cc1 (stereo not drawn) [Compound A120, 3-(3-Chloro-6-hydroxyphenyl)-1-[2-(4-hydroxy-phenyl)propionyl]-4,5-dihydro-1H-pyrazole] |
| 610 | O=C(Cc1ccc2nsnc2c1)N1CCC(c2ccc(F)cc2)=N1 [Compound A2, 1-(benzo-1,2,5-thiadiazol-5-ylmethylcarbonyl)-3-(4-fluorophenyl)-4,5-dihydro-1H-pyrazole] |
| 320 | COc1ccc(C2=NN(C(=O)Cc3ccc4nsnc4c3)CC2)c(OC)c1 [Compound A1, 1-(benzo-1,2,5-thiadiazol-5-ylmethylcarbonyl)-3-(2,4-dimethoxyphenyl)-4,5-dihydro-1H-pyrazole] |
| 990 | COc1ccc(C2=NN(C(=O)Cc3cccc(O)c3)CC2)c(OC)c1 [Compound A30, 1-(3-Hydroxybenzylcarbonyl)-3-(2,4-dimethoxy-phenyl)-4,5-dihydro-1H-pyrazole] |
| 8 | CN(C)CCCOC(=O)Nc1cccc(CC(=O)N2CCC(c3cc(Cl)ccc3Cl)=N2)c1 [Compound A153, 3-Dimethylaminopropyl (3-{2-[3-(2,5-dichlorophenyl)-4,5-dihydro-1H-pyrazol-1-yl]-2-oxoethyl}phenyl)carbamate] |
